Experiments:
[1] = tested on: influenza A virus (H1N1); assay: microbe, parasite or virus in culture; assay type: cell-based; conditions: for IC50: Influenza A virus, H1N1, MDCK, tested 0.0625-1.0000 mM, unit inferred, read-out: IC50 (anti-viral activity)
[2] = Pharmacokinetics of caffeic acid derivatives after oral administration of the FLJ-FF herb couple; design: species or system rats; conditions: rat, in vivo
Procedure: The pharmacokinetics of caffeic acid derivatives in the FLJ-FF herb couple was studied in our previous study. Integral concentrations at each time point for the eight components were calculated based on the AUC-weighting method. The weighting coefficient for each component was calculated using Equations (4) and (5). […] AUC was determined using GraphPad Prism for Windows, version 5 (Graph Pad Software Inc., San Diego, CA, USA). […] Subsequently, plasma was prepared by centrifugation at 1816× g for 7 min and immediately analyzed or stored at −70 °C for further analysis after being mixed with 10 μL of 5% formic acid. The treatment and UPLC-ESI-MS/MS analysis for samples have been studied previously.

[3] = In vivo pharmacokinetic study of FLJ-FF herb couple preparations with or without COS; design: species or system rats; conditions: rat, po
Description: The rats were administrated product A and A4 at the dosages of at the dosage of 32 g raw medicine per kilogram, product B and B4 at the dosage of 64 g raw medicine per kilogram, product C and C4 at the dosage of 48 g raw medicine per kilogram, and product D and D4 at the dosage of 160 g raw medicine per kilogram, respectively.

[4] = tested on: influenza virus strain, A/PR8/34 (H1N1); assay type: cell-based; conditions: compared with PBS group; ribavirin 20 mg/kg orally as positive control; Figure S1
[5] = tested on: Caco-2 cell; assay: In vitro Caco-2 cell transport model; assay type: in vitro ADME, human; conditions: Shuang-Huang-Lian, with 0.1% (w/v) of COS vs control
Description: The protocol of Caco-2 cell study was shown previously.

Which “antiviral activity, folds lower than that of forsythoside A” value [1] does the source give for `O=C(/C=C/c1ccc(O)c(O)c1)O[C@@H]1C[C@](O)(C(=O)O)C[C@@H](O)[C@H]1O` [Chlorogenic acid] here?
The value was 2.47 folds.

What about the IC50 [1] of the same compound?
The IC50 was 754 µM.

What about the AUC(0-inf) [2] of the same compound?
Its AUC(0-inf) is 3160 ng·h/mL.

What about the AUC(0-t) [2] of the same compound?
Its AUC(0-t) is 3220 ng·h/mL.

What about the Cmax [2] of the same compound?
The Cmax was 2500 ± 438 ng/mL.

And the MRT last [2]?
Its MRT last is 4.74 h.

What about the half-life [2] of the same compound?
The half-life was 3.9 ± 0.699 h.

And the AUC ([3]; 25 mg/kg, AUC (Absorption Enhancer))?
Its AUC is 968 ng·h/mL.

And the AUC ([3]; AUC (Control))?
Its AUC is 638 ng·h/mL.

Which “inhibition rate on influenza virus” value [4] does the source give for `NC(=O)c1ncn([C@@H]2O[C@H](CO)[C@@H](O)[C@H]2O)n1` [ribavirin] here?
Its value is “remarkable increase”.

What does the source list for `O=C(/C=C/c1ccc(O)c(O)c1)O[C@@H]1C[C@](O)(C(=O)O)C[C@@H](OC(=O)/C=C/c2ccc(O)c(O)c2)[C@H]1O` [3,5-dicaffeoylquinic acid]?
IC50 [1]: 393 µM; AUC(0-inf) [2]: 54.2 ng·h/mL; AUC(0-t) [2]: 53.1 ng·h/mL; Cmax [2]: 70.5 ± 28.1 ng/mL; MRT last [2]: 6.39 h; Tmax [2]: 0.1667 ± 0 h; half-life [2]: 5.95 ± 0.559 h; highest Papp-value increase [5]: 8.66 fold; AUC ([3]; AUC (Control)): 57.7 ng·h/mL

With `O=C(C=Cc1ccc(O)c(O)c1)OC1CC(O)(C(=O)O)CC(O)C1OC(=O)C=Cc1ccc(O)c(O)c1` (stereo not drawn) [3,4-dicaffeoylquinic acid] as the compound, how does the IC50 [1] read?
Its IC50 is 401 µM.

What about the AUC(0-inf) [2] of the same compound?
The AUC(0-inf) was 213 ng·h/mL.

And the AUC(0-t) [2]?
The AUC(0-t) was 141 ng·h/mL.

And the Cmax [2]?
Its Cmax is 66.7 ± 15.4 ng/mL.

What about the MRT last [2] of the same compound?
The MRT last was 7.6 h.

What about the Tmax [2] of the same compound?
Its Tmax is 0.167 h.

And the half-life [2]?
Its half-life is 9.18 ± 0.649 h.

What about the “highest Papp-value increase” value [5] of the same compound?
Its value is 5.86 fold.

Which IC50 [1] does the source give for `O=C(C=Cc1ccc(O)c(O)c1)OC1C(O)CC(O)(C(=O)O)CC1O` (stereo not drawn) [Cryptochlorogenic acid, cryptochlorogenic acid] here?
The IC50 was 735 µM.

And the AUC(0-inf) [2]?
The AUC(0-inf) was 726 ng·h/mL.

And the AUC(0-t) [2]?
The AUC(0-t) was 713 ng·h/mL.

What about the Cmax [2] of the same compound?
The Cmax was 950 ± 201 ng/mL.

And the MRT last [2]?
The MRT last was 4.84 h.

And the Tmax [2]?
Its Tmax is 0.167 h.

And the half-life [2]?
Its half-life is 4.64 ± 1.03 h.

What about the “highest Papp-value increase” value [5] of the same compound?
The value was 3.13 fold.

For `O=C(C=Cc1ccc(O)c(O)c1)OC1CC(O)(C(=O)O)CC(O)C1O` (stereo not drawn) [Neochlorogenic acid], which IC50 [1] is on record?
Its IC50 is 722 µM.

What about the AUC(0-inf) [2] of the same compound?
The AUC(0-inf) was 715 ng·h/mL.

And the AUC(0-t) [2]?
The AUC(0-t) was 579 ng·h/mL.

And the Cmax [2]?
The Cmax was 575 ± 170 ng/mL.

What about the MRT last [2] of the same compound?
Its MRT last is 5.3 h.

And the Tmax [2]?
The Tmax was 0.167 h.

What about the half-life [2] of the same compound?
Its half-life is 3.49 ± 0.423 h.

From publication PMC6154603, “Study on the Rationality for Antiviral Activity of Flos Lonicerae Japonicae-Fructus Forsythiae Herb Couple Preparations Improved by Chito-Oligosaccharide via Integral Pharmacokinetics” (Molecules : A Journal of Synthetic Chemistry and Natural …, 2017)
